How the values were obtained:
GLO1 [1] = target: T1, GLO1 (Homo sapiens, UniProt Q04760); assay: fluorescence spectroscopy; format: binding
T1 sequence (Q04760 2-184): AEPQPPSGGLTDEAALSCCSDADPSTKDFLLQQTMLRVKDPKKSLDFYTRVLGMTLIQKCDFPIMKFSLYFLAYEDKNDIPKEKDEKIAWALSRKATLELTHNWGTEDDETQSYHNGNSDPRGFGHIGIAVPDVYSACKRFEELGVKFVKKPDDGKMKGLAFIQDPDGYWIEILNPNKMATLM

GLO1 in PC12 cells = target: T2, GLO1 in PC12 cells (Rattus norvegicus, UniProt Q6P7Q4); assay: cellular thermal shift assay; format: cell-based; details: half-maximal thermal stabilization
T2 sequence (Q6P7Q4 2-184): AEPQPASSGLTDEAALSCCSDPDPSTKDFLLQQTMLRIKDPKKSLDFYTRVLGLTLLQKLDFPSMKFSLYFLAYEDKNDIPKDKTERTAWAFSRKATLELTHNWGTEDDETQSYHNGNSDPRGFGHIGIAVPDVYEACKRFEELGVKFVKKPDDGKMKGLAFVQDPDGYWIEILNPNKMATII

GLO1 [2] = target: T1, GLO1; assay: fluorescence spectroscopy; format: binding; details: 298 K, 5 μM GLO1

Kd (GLO1 [1]): 47.2 µM | EC50 (GLO1 in PC12 cells): 45.2 µM | Ka (GLO1 [2]): 21200 L/mol
SMILES: O=c1cc(-c2ccc(O)c(O)c2)oc2cc(O)cc(O)c12 [luteolin]
